{
  "source": "patent US9049814B2",
  "about": "“Coated seeds and methods of making coated seeds” (VamTech, LLC, priority 2007, dated 2015)",
  "key": {"[1]": {"test_system": "VAM fungi (4 species VAM fungal cocktail) on corn plants", "assay": "Percent VAM development on 6-week-old corn plants from coated seed (2006)", "assay_type": "in vivo", "details": "for % VAM: 6-week-old corn plants, 95 VAM spores, low P; for % VAM, averaged: average across treatments, base VAM level 54% without treatment", "text": "Example 1 describes experimental studies carried out, in spring and summer of 2006 to evaluate the effects of different commercial fungicide seed coatings on VAM development in germinated corn seedlings in the presence and absence of alkali formononetinate. All corn seed coatings were done by Sub-Sahara International, Inc. (now owned by Becker Underwood Inc.) using standard coating procedures. The treater used was an RP-14 rotary seed coating machine manufactured by Sedpell in Canada. Successive applications were made with the fungicides being applied first according to the label instructions; then, when the seeds were dry they were over-coated with the alkali (potassium) formononetinate.\nFungicides were applied as a high viscosity, liquid suspension formulations according to the use directions on the respective labels.\nThe alkali formononetinate was dissolved in water and Polykote added according to the following ratios by weight: water—70 parts; alkali formononetinate—45 parts; Polykote—20 parts.\nSeed germination and VAM development tests were carried out in a greenhouse at the Formosa Agricultural and Environmental Research Center, LaWard, Tex.\nPercent VAM development was determined, within 3 weeks of treatment, on five, 6-week-old corn plants (from seeding) per treatment planted in sterile potting soil containing 95 spores of a 4 species VAM fungal cocktail at low P concentration. Originally 10 plants per treatment were installed in 30 ml Seedling® cells and after 10 days, 5 were transplanted into 1 liter containers."}, "[2]": {"test_system": "VAM fungi (Glomus etunicatum, Glomus clarum, Entrophospora columbiana, Glomus intraradices) on corn roots", "assay": "VAM colonization of corn roots from Myconate over-treated seed (2007)", "assay_type": "in vivo, Zea mays L.", "details": "for % Root colonization by VAM: Mean (%) / % Root colonization by VAM in 5 replicates: A / % Root colonization by VAM in 5 replicates: B / % Root colonization by VAM in 5 replicates: C / % Root colonization by VAM in 5 replicates: D / % Root colonization by VAM in 5 replicates: E: variety BH, fungicide/insecticide pre-treated seed; for % Root colonization by VAM: Mean (%): mean of 5 replicates; for % Root colonization by VAM in 5 replicates: A: replicate A; for % Root colonization by VAM in 5 replicates: B: replicate B; for % Root colonization by VAM in 5 replicates: C: replicate C; for % Root colonization by VAM in 5 replicates: D: replicate D; for % Root colonization by VAM in 5 replicates: E: replicate E", "protocol": "Methods: This study was conducted between February-April 2007 in a greenhouse at the Formosa Agricultural and Environmental Research Center using hybrid corn plants (Zea mays L.) var. Beck's Hybrids 5959 (HB) and Dow/Mycogen 2D675 (PG). The hybrid corn seed was purchased from commercial sources and was pre-treated with one of two fungicidal/insecticidal seed treatments. Variety HB was commercially treated with Beck's “SureGro” containing fludioxonil and mefenoxam fungicides; together with Agriliance Actellic 5E (a.i. pirimiphos-methyl) insecticide, according to label directions. Variety PG was commercially treated with Syngenta “Cruiser Extreme” (a.i. fludioxonil, mefenoxam and azoxystrobin fungicides plus thiamethoxam insecticide) according to label directions.\nSubsequently, the corn seed was over-treated with one of two formulations of Myconate. One formulation contained 98% potassium formononetinate (kf) together with Polykote polymer; and the other, 100% acid formononetin (afP) together with Polykote polymer, wetting agent, colorant, and preservative. The kf treatments, 1 through 6 in Table 6, contained varying amounts of potassium formononetinate and were applied using a lab bench apparatus. The afP treatments, 18 and 19, were applied using commercial equipment. Treated HB seed received the kf treatment of potassium formononetinate at rates of 0.2 to 5.6 mg/seed. Treated PG seed received the afP treatment of formononetin at single rate of 0.8 mg/seed. The concentration of formononetin per seed was calculated by gravimetric measurement of the coating applied to the seed.\nThe controls for the kf treatments involved two seed samples, 7 and 8, both untreated with kf and one of these was also untreated with VAM spores. The control for the afP treatment was treated with afP but was not treated with VAM. The various treatments, including the addition of VAM spores to the growing medium prior to sowing for VAM development studies are described schematically in Table 6.\nThe colonization rate of VAM fungi on corn roots was determined using methods commonly used to quantify vesicular arbuscular mycorrhiza (Kormanik PP and AC McGraw (1984) Quantification of vesicular-arbuscular mycorrhizae in plant roots. In N. C. Schenck (ed.) Methods and Principles of Mycorrhizal Research. American Phytopathological Society, St. Paul, Minn.; Phillips J M and D S Hayman (1970) Improved procedures for clearing roots and staining parasitic and vesicular-arbuscular mycorrhizal fungi for rapid assessment of infection. Trans. Br. Mycol. Soc. 55:158-160; Read D J, H K Koncheki and J Hodgson (1976) Vesicular-arbuscular mycorrhiza in natural vegetation systems. New Phytol. 77:641-653). Speedling tray cells (30 ml volume) were partially (⅔) filled with autoclaved Miraco-III potting mix and inoculated with 95 spores of VAM cocktail (Lot No. 12-14-04). The VAM cocktail contained spores of Glomus etunicatum, Glomus clarum, Entrophospora columbiana and Glomus intraradices. The cocktail was prepared by mixing dry-sieved (179 microns) spore preparations of G. entunicatum, G. clarum and E. columbiana with dry root pieces containing the intraradical spores of G. intraradices. Each fungal species was individually produced and processed using a pot culture technique. The cells were then filled with Miraco-III mix. After sowing, (one seed per cell, 9-20 seed per treatment), the trays were incubated under continuous light at room temperature. Ten days after sowing, five seedlings from each experimental treatment and 10 from two untreated controls (Treatments 7 and 8) were randomly selected and transplanted to 1-liter cups containing a sand-based medium. The cups were incubated in a greenhouse and a low phosphorus (P) nutrient solution (1.175 ppm) was applied to all treatments 1-2 times per week as needed to maintain proper soil moisture. […]"}, "[3]": {"test_system": "VAM-infected roots of oats", "details": "thereby decreasing phosphorus uptake; cited from earlier work"}, "Glomus mosseae": {"test_system": "Glomus mosseae", "details": "cited from earlier work"}, "[4]": {"test_system": "mycorrhizal colonization of Leucaena leucocephala", "details": "in vivo; cited from earlier work"}},
  "data": [
    {"smiles": "COc1ccc(-c2coc3cc([O-])ccc3c2=O)cc1.[K+]", "note": "[Myconate kf, potassium formononetinate]", "values": [
      {"measurement": "% VAM", "setting": "[1]; 0.5 mg alkali formononetinate/seed over-coated on the named fungicide (or none)", "result": 61, "unit": "%"},
      {"measurement": "% VAM, averaged", "setting": "[1]; 0.5 mg alkali formononetinate/seed", "result": 67, "unit": "%"},
      {"measurement": "% VAM", "setting": "[1]; 1.0 mg alkali formononetinate/seed over-coated on the named fungicide (or none)", "result": 66, "unit": "%"},
      {"measurement": "% VAM, averaged", "setting": "[1]; 1.0 mg alkali formononetinate/seed", "result": 73, "unit": "%"},
      {"measurement": "increase of VAM colonization", "setting": "[2]; 1.6 mg/seed", "result": "approximately 30%"},
      {"measurement": "% Root colonization by VAM: Mean (%)", "setting": "[2]; Treatment 1: 0.2 mg/seed kf", "result": 41.0, "unit": "%"},
      {"measurement": "% Root colonization by VAM in 5 replicates: A", "setting": "[2]; Treatment 1: 0.2 mg/seed kf", "result": 40, "unit": "%"},
      {"measurement": "% Root colonization by VAM in 5 replicates: B", "setting": "[2]; Treatment 1: 0.2 mg/seed kf", "result": 47, "unit": "%"},
      {"measurement": "% Root colonization by VAM in 5 replicates: C", "setting": "[2]; Treatment 1: 0.2 mg/seed kf", "result": 41, "unit": "%"},
      {"measurement": "% Root colonization by VAM in 5 replicates: D", "setting": "[2]; Treatment 1: 0.2 mg/seed kf", "result": 39, "unit": "%"},
      {"measurement": "% Root colonization by VAM in 5 replicates: E", "setting": "[2]; Treatment 1: 0.2 mg/seed kf", "result": 38, "unit": "%"},
      {"measurement": "% Root colonization by VAM: Mean (%)", "setting": "[2]; Treatment 2: 0.4 mg/seed kf", "result": 43.6, "unit": "%"},
      {"measurement": "% Root colonization by VAM in 5 replicates: A", "setting": "[2]; Treatment 2: 0.4 mg/seed kf", "result": 44, "unit": "%"},
      {"measurement": "% Root colonization by VAM in 5 replicates: B", "setting": "[2]; Treatment 2: 0.4 mg/seed kf", "result": 48, "unit": "%"},
      {"measurement": "% Root colonization by VAM in 5 replicates: C", "setting": "[2]; Treatment 2: 0.4 mg/seed kf", "result": 45, "unit": "%"},
      {"measurement": "% Root colonization by VAM in 5 replicates: D", "setting": "[2]; Treatment 2: 0.4 mg/seed kf", "result": 40, "unit": "%"},
      {"measurement": "% Root colonization by VAM in 5 replicates: E", "setting": "[2]; Treatment 2: 0.4 mg/seed kf", "result": 41, "unit": "%"},
      {"measurement": "% Root colonization by VAM: Mean (%)", "setting": "[2]; Treatment 3: 0.8 mg/seed kf", "result": 43.8, "unit": "%"},
      {"measurement": "% Root colonization by VAM in 5 replicates: A", "setting": "[2]; Treatment 3: 0.8 mg/seed kf", "result": 45, "unit": "%"},
      {"measurement": "% Root colonization by VAM in 5 replicates: B", "setting": "[2]; Treatment 3: 0.8 mg/seed kf", "result": 42, "unit": "%"},
      {"measurement": "% Root colonization by VAM in 5 replicates: C", "setting": "[2]; Treatment 3: 0.8 mg/seed kf", "result": 47, "unit": "%"},
      {"measurement": "% Root colonization by VAM in 5 replicates: D", "setting": "[2]; Treatment 3: 0.8 mg/seed kf", "result": 45, "unit": "%"},
      {"measurement": "% Root colonization by VAM in 5 replicates: E", "setting": "[2]; Treatment 3: 0.8 mg/seed kf", "result": 40, "unit": "%"},
      {"measurement": "% Root colonization by VAM: Mean (%)", "setting": "[2]; Treatment 4: 1.6 mg/seed kf", "result": 32.0, "unit": "%"},
      {"measurement": "% Root colonization by VAM in 5 replicates: A", "setting": "[2]; Treatment 4: 1.6 mg/seed kf", "result": 30, "unit": "%"},
      {"measurement": "% Root colonization by VAM in 5 replicates: B", "setting": "[2]; Treatment 4: 1.6 mg/seed kf", "result": 39, "unit": "%"},
      {"measurement": "% Root colonization by VAM in 5 replicates: C", "setting": "[2]; Treatment 4: 1.6 mg/seed kf", "result": 28, "unit": "%"},
      {"measurement": "% Root colonization by VAM in 5 replicates: D", "setting": "[2]; Treatment 4: 1.6 mg/seed kf", "result": 35, "unit": "%"},
      {"measurement": "% Root colonization by VAM in 5 replicates: E", "setting": "[2]; Treatment 4: 1.6 mg/seed kf", "result": 28, "unit": "%"},
      {"measurement": "% Root colonization by VAM: Mean (%)", "setting": "[2]; Treatment 5: 4.0 mg/seed kf", "result": 25.0, "unit": "%"},
      {"measurement": "% Root colonization by VAM in 5 replicates: A", "setting": "[2]; Treatment 5: 4.0 mg/seed kf", "result": 27, "unit": "%"},
      {"measurement": "% Root colonization by VAM in 5 replicates: B", "setting": "[2]; Treatment 5: 4.0 mg/seed kf", "result": 21, "unit": "%"},
      {"measurement": "% Root colonization by VAM in 5 replicates: C", "setting": "[2]; Treatment 5: 4.0 mg/seed kf", "result": 31, "unit": "%"},
      {"measurement": "% Root colonization by VAM in 5 replicates: D", "setting": "[2]; Treatment 5: 4.0 mg/seed kf", "result": 24, "unit": "%"},
      {"measurement": "% Root colonization by VAM in 5 replicates: E", "setting": "[2]; Treatment 5: 4.0 mg/seed kf", "result": 22, "unit": "%"},
      {"measurement": "% Root colonization by VAM: Mean (%)", "setting": "[2]; Treatment 6: 5.6 mg/seed kf", "result": 18.2, "unit": "%"},
      {"measurement": "% Root colonization by VAM in 5 replicates: A", "setting": "[2]; Treatment 6: 5.6 mg/seed kf", "result": 19, "unit": "%"},
      {"measurement": "% Root colonization by VAM in 5 replicates: B", "setting": "[2]; Treatment 6: 5.6 mg/seed kf", "result": 12, "unit": "%"},
      {"measurement": "% Root colonization by VAM in 5 replicates: C", "setting": "[2]; Treatment 6: 5.6 mg/seed kf", "result": 25, "unit": "%"},
      {"measurement": "% Root colonization by VAM in 5 replicates: D", "setting": "[2]; Treatment 6: 5.6 mg/seed kf", "result": 18, "unit": "%"},
      {"measurement": "% Root colonization by VAM in 5 replicates: E", "setting": "[2]; Treatment 6: 5.6 mg/seed kf", "result": 17, "unit": "%"},
      {"measurement": "effect on VAM colonization", "setting": "[2]; at or above 4.0 mg/seed", "result": "decreased VAM colonization"},
      {"measurement": "increase of VAM colonization", "setting": "[2]; commercial use rate (0.8 mg/seed), over the untreated control (24.2% VAM colonization)", "result": 81, "unit": "%"}
    ]},
    {"smiles": "O=[N+]([O-])c1c(Cl)c(Cl)c(Cl)c(Cl)c1Cl", "note": "[PCNB, pentachloronitrobenzene]", "values": [
      {"measurement": "VAM-infected root length of oats", "setting": "[3]", "result": "decreased"}
    ]},
    {"smiles": "CCCCNC(=O)n1c(NC(=O)OC)nc2ccccc21", "note": "[benomyl]", "values": [
      {"measurement": "Growth of the vesicular arbuscular mycorrhizal fungus Glomus mosseae", "setting": "Glomus mosseae", "result": "affected"}
    ]},
    {"smiles": "N#Cc1c(Cl)c(Cl)c(Cl)c(C#N)c1Cl", "note": "[chlorothalonil]", "values": [
      {"measurement": "mycorrhizal colonization, phosphorus concentration, and dry matter yields of Leucaena leucocephala", "setting": "[4]", "result": "decrease"}
    ]}
  ]
}
